According to PubChem BioAssay (NCI):
Values joined by “and” are separate entries in the source; they are usually repeats but may differ in a detail not shown here. Identical values can stand only once.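 Cultured in 96-well plates, cells were exposed to test compound for 48 hours across five concentrations. GI50: concentration for 50% inhibition of growth. TGI: concentration producing complete growth inhibition.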 Where a SMILES comes first, the peptide text is derived from it. [ ]: non-standard residue; d: D form. Phe(F5) = N[CH](Cc1c(F)c(F)c(F)c(F)c1F)C(=O)O

How the values were obtained:
Test in all cases: DTP human tumour cell line panel, 48 h
SN12C renal = tested on: SN12C renal
SNB-75 CNS = tested on: SNB-75 CNS
SK-MEL-28 melanoma = tested on: SK-MEL-28 melanoma
HCT-15 colon = tested on: HCT-15 colon
OVCAR-4 ovarian = tested on: OVCAR-4 ovarian
HOP-18 NSCLC = tested on: HOP-18 NSCLC
CAKI-1 renal = tested on: CAKI-1 renal
DMS 114 small cell lung = tested on: DMS 114 small cell lung
DU-145 prostate = tested on: DU-145 prostate
MDA-MB-435 = tested on: MDA-MB-435

## CCOC(=O)C=C1CCN(C(=O)c2ccccc2)CC1
SN12C renal
  TGI: > 100 µM
SNB-75 CNS
  TGI: > 100 µM
SK-MEL-28 melanoma
  TGI: > 100 µM
HCT-15 colon
  TGI: > 100 µM
OVCAR-4 ovarian
  TGI: > 100 µM
HOP-18 NSCLC
  TGI: > 100 µM

## CS(=O)(=O)CC1=Nc2nnc(CCCCCCCc3nnc4n3C(=O)C(CS(C)(=O)=O)=N4)n2C1=O
SN12C renal
  TGI: > 100 µM
CAKI-1 renal
  TGI: > 100 µM
SNB-75 CNS
  TGI: > 100 µM
SK-MEL-28 melanoma
  TGI: > 100 µM
HCT-15 colon
  TGI: > 100 µM
DMS 114 small cell lung
  TGI: > 100 µM
HOP-18 NSCLC
  TGI: > 100 µM

## O=C(NCCCCCCNC(=O)c1cccc2ccccc12)c1cccc2ccccc12
SN12C renal
  TGI: > 100 µM
CAKI-1 renal
  TGI: 66.3 µM
SNB-75 CNS
  TGI: 9.55 µM
SK-MEL-28 melanoma
  TGI: > 100 µM
HCT-15 colon
  TGI: > 100 µM
OVCAR-4 ovarian
  TGI: 58.6 µM
DMS 114 small cell lung
  TGI: > 100 µM
HOP-18 NSCLC
  TGI: 76.8 µM

## C=C1C(=O)OC2CC3(C)C=CC(=O)C(=C)C3CC12 (configuration not stated)
SN12C renal
  TGI: 3.46 µM
CAKI-1 renal
  TGI: 2.77 µM
SNB-75 CNS
  TGI: 14.7 µM
SK-MEL-28 melanoma
  TGI: 3.48 µM
HCT-15 colon
  TGI: 4.09 µM
OVCAR-4 ovarian
  TGI: 6.55 µM
DMS 114 small cell lung
  TGI: 9.57 µM
HOP-18 NSCLC
  TGI: 8.77 µM

## O=C(CCn1[nH]c(=O)c(Cl)c(Cl)c1=O)NOCCCc1ccccc1
SN12C renal
  TGI: > 100 µM
CAKI-1 renal
  TGI: > 100 µM
SNB-75 CNS
  TGI: > 100 µM
SK-MEL-28 melanoma
  TGI: > 100 µM
HCT-15 colon
  TGI: > 100 µM
OVCAR-4 ovarian
  TGI: > 100 µM
HOP-18 NSCLC
  TGI: > 100 µM

## COC(=O)[C@@H]1CSC(=S)N1C(=O)C[C@H]1CC=CC[C@H]1CC(=O)Sc1ccccc1
SN12C renal
  TGI: 30.4 µM
SNB-75 CNS
  TGI: 29 µM
SK-MEL-28 melanoma
  TGI: 32.1 µM
HCT-15 colon
  TGI: 32.3 µM
HOP-18 NSCLC
  TGI: 61.1 µM

## O=C(CC1Sc2ccccc2NC1=O)Nc1cc(Cl)ccc1Cl (configuration not stated)
SN12C renal
  TGI: > 100 µM
CAKI-1 renal
  TGI: > 100 µM
SNB-75 CNS
  TGI: > 100 µM
SK-MEL-28 melanoma
  TGI: > 100 µM
HCT-15 colon
  TGI: > 100 µM
OVCAR-4 ovarian
  TGI: > 100 µM
DMS 114 small cell lung
  TGI: > 100 µM

## CC1(Sc2ccccc2)CN(Cc2ccccc2)C1=O (configuration not stated)
SN12C renal
  TGI: > 100 µM
SNB-75 CNS
  TGI: > 100 µM
SK-MEL-28 melanoma
  TGI: > 100 µM
HCT-15 colon
  TGI: > 100 µM
OVCAR-4 ovarian
  TGI: > 100 µM
DMS 114 small cell lung
  TGI: > 100 µM
HOP-18 NSCLC
  TGI: > 100 µM

## COC(=O)CCC(=O)N1Cc2cc(C)ccc2N(C(=O)CCC(=O)OC)Cc2cc(C)ccc21
SN12C renal
  TGI: > 100 µM
CAKI-1 renal
  TGI: > 100 µM
SK-MEL-28 melanoma
  TGI: > 100 µM
HCT-15 colon
  TGI: > 100 µM
OVCAR-4 ovarian
  TGI: > 100 µM
HOP-18 NSCLC
  TGI: > 100 µM

## C=C(C)[C@@H]1CC=C(CO)CC1
SN12C renal
  GI50: > 10 µM
  TGI: > 10 µM and 1220 µM
CAKI-1 renal
  TGI: > 10 µM
SNB-75 CNS
  GI50: > 10 µM
  TGI: > 10 µM and 374 µM
SK-MEL-28 melanoma
  GI50: > 10 µM
  TGI: > 10 µM and 829 µM
DU-145 prostate
  TGI: > 10 µM
MDA-MB-435
  TGI: > 10 µM
HCT-15 colon
  GI50: > 10 µM
  TGI: > 10 µM and 790 µM
OVCAR-4 ovarian
  GI50: > 10 µM
  TGI: > 10 µM and 1130 µM
DMS 114 small cell lung
  TGI: 709 µM

## Cc1ccc2c(c1)C1(C)OC(CC(N)C1O)O2 (configuration not stated)
SN12C renal
  TGI: > 100 µM
SNB-75 CNS
  TGI: > 100 µM
SK-MEL-28 melanoma
  TGI: > 100 µM
HCT-15 colon
  TGI: > 100 µM
DMS 114 small cell lung
  TGI: > 100 µM
HOP-18 NSCLC
  TGI: > 100 µM

## CN(C)c1ccc2c(NCCCCCCNc3ccnc4cc(N(C)C)ccc34)ccnc2c1
SN12C renal
  TGI: > 100 µM
CAKI-1 renal
  TGI: > 100 µM
SK-MEL-28 melanoma
  TGI: 50.8 µM
HCT-15 colon
  TGI: > 100 µM
OVCAR-4 ovarian
  TGI: 28.2 µM
DMS 114 small cell lung
  TGI: 66.6 µM

## Nc1cc(=O)[nH]c(SC2=NC(N)CC(O)C2)n1 (configuration not stated)
SN12C renal
  TGI: > 100 µM
CAKI-1 renal
  TGI: > 100 µM
SNB-75 CNS
  TGI: > 100 µM
SK-MEL-28 melanoma
  TGI: > 100 µM
HCT-15 colon
  TGI: > 100 µM
OVCAR-4 ovarian
  TGI: > 100 µM
DMS 114 small cell lung
  TGI: > 100 µM
HOP-18 NSCLC
  TGI: > 100 µM

## COC(=O)C(CC(C)C)NC(=O)C(Cc1cnc[nH]1)NC(=O)CNC(=O)C(NC(=O)C(C)NC(=O)C(Cc1c[nH]c2ccccc12)NC(=O)C(CCC(=O)O)NC(=O)C(N)Cc1c(F)c(F)c(F)c(F)c1F)C(C)C (configuration not stated) (H-[Phe(F5)]EWAVGHL-OMe; configuration not given here)
SN12C renal
  GI50: > 100 µM
  TGI: > 100 µM
CAKI-1 renal
  GI50: > 100 µM
  TGI: > 100 µM
SNB-75 CNS
  TGI: > 100 µM
SK-MEL-28 melanoma
  GI50: > 100 µM
  TGI: > 100 µM
DU-145 prostate
  TGI: > 12.5 µM
MDA-MB-435
  TGI: > 12.5 µM
HCT-15 colon
  GI50: > 100 µM
  TGI: > 100 µM
OVCAR-4 ovarian
  GI50: > 100 µM
  TGI: > 100 µM
DMS 114 small cell lung
  TGI: > 100 µM
HOP-18 NSCLC
  TGI: > 100 µM

## CCOP(=O)(OCC)C1CCCCOC1=O (configuration not stated)
SN12C renal
  TGI: > 100 µM
CAKI-1 renal
  TGI: > 100 µM
SNB-75 CNS
  TGI: > 100 µM
SK-MEL-28 melanoma
  TGI: > 100 µM
HCT-15 colon
  TGI: > 100 µM
OVCAR-4 ovarian
  TGI: > 100 µM
DMS 114 small cell lung
  TGI: > 100 µM
HOP-18 NSCLC
  TGI: > 100 µM

## CC(=O)[O][Pb]([O]C(C)=O)([c]1ccccc1)[c]1ccccc1
SN12C renal
  GI50: 3.61 µM
  TGI: > 100 µM
CAKI-1 renal
  GI50: 13.7 µM
  TGI: > 100 µM
SNB-75 CNS
  GI50: 4.41 µM
  TGI: > 77.7 µM
SK-MEL-28 melanoma
  GI50: 6.72 µM
  TGI: > 100 µM
HCT-15 colon
  GI50: 7.06 µM
  TGI: > 100 µM
OVCAR-4 ovarian
  GI50: > 100 µM
  TGI: > 100 µM
DMS 114 small cell lung
  GI50: 1.44 µM
  TGI: 4.16 µM
HOP-18 NSCLC
  GI50: 6.5 µM
  TGI: > 100 µM

## C=C1C(=O)O[C@H]2C[C@@H](C)[C@@H]3CC(=O)OC[C@@]3(C)CC12 (some centres not stated)
SN12C renal
  TGI: 60.8 µM
CAKI-1 renal
  TGI: 51 µM
SNB-75 CNS
  TGI: > 100 µM
SK-MEL-28 melanoma
  TGI: 47.8 µM
HCT-15 colon
  TGI: > 100 µM
OVCAR-4 ovarian
  TGI: 54.4 µM
HOP-18 NSCLC
  TGI: > 100 µM

## CC1CC2C(=O)NC(=O)C2c2[nH]c3ccccc3c21 (configuration not stated)
SN12C renal
  TGI: > 100 µM
CAKI-1 renal
  TGI: > 100 µM
SNB-75 CNS
  TGI: > 100 µM
HCT-15 colon
  TGI: > 100 µM
OVCAR-4 ovarian
  TGI: > 100 µM
DMS 114 small cell lung
  TGI: > 100 µM

## COc1ccccc1[N-]C(C1=C([O-])c2ccccc2C1=O)c1ccccc1.COc1ccccc1[N-]C(C1=C([O-])c2ccccc2C1=O)c1ccccc1.[Cu+2] (configuration not stated)
SN12C renal
  GI50: 9.37 µM
  TGI: > 100 µM
CAKI-1 renal
  GI50: 12.7 µM
  TGI: 54.5 µM
SNB-75 CNS
  GI50: 11.9 µM
  TGI: 37.1 µM
SK-MEL-28 melanoma
  GI50: 16.2 µM
  TGI: > 100 µM
HCT-15 colon
  GI50: 6.51 µM
  TGI: > 100 µM
DMS 114 small cell lung
  GI50: 3.01 µM
  TGI: > 100 µM
HOP-18 NSCLC
  GI50: 18.3 µM
  TGI: 95.1 µM

## CCc1ccc(NCc2cc(OC)c(OC)c(OC)c2)cc1
SN12C renal
  GI50: 0.578 µM and 1.16 µM
  TGI: 38.4 µM and > 68.7 µM
CAKI-1 renal
  TGI: > 100 µM
SNB-75 CNS
  GI50: 0.387 µM and 0.882 µM
  TGI: > 100 µM
SK-MEL-28 melanoma
  GI50: 1.27 µM and 0.185 µM
  TGI: > 75.2 µM and 69.6 µM
DU-145 prostate
  TGI: > 100 µM and 19.5 µM
MDA-MB-435
  GI50: 0.0232 µM and 0.0172 µM
  TGI: 45.8 µM and 31.3 µM
HCT-15 colon
  TGI: 42.2 µM and 20.4 µM
OVCAR-4 ovarian
  TGI: > 100 µM
DMS 114 small cell lung
  TGI: 4.9 µM and 10.2 µM
HOP-18 NSCLC
  GI50: 3.4 µM and 27.6 µM
  TGI: > 100 µM

## CN1CCc2c1nc(-c1ccccc1)c1c2N(C)CC1
SN12C renal
  TGI: > 100 µM
CAKI-1 renal
  TGI: > 100 µM
SNB-75 CNS
  TGI: > 100 µM
HCT-15 colon
  TGI: > 100 µM
OVCAR-4 ovarian
  TGI: > 100 µM
HOP-18 NSCLC
  TGI: 78.6 µM
